According to US12459951B2, “Compounds that interact with RAS superfamily proteins for treatment of cancers, inflammatory diseases, rasopathies, and fibrotic disease” (SHY Therapeutics, LLC, priority 2022, dated 2025):

Legend:
[1] = Kinetic Solubility Assay in pH 7.4 Buffer + 2% DMSO; format: physicochemical; settings: phosphate-buffered saline pH 7.4 with 2% DMSO, aqueous buffer, kinetic from dmso stock, 25° C., two hours
Procedure: Biological Example 9: Kinetic Solubility
Kinetic solubility assay in pH 7.4 Buffer+2% DMSO (“Kinetic Solubility Assay) was performed according to the following protocol: Briefly, using a 20 mM stock solution of the tested compounds in 100% DMSO, dilutions were prepared to a theoretical concentration of 400 μM in duplicates in phosphate-buffered saline pH 7.4 (138 mM NaCl, 2.7 mM KCl, 10 mM K-phosphate) with 2% final DMSO. The tested compounds dilutions in PBS were further allowed to equilibrate at 25° C. on a thermostatic shaker for two hours and then filtered through HTS filter plates using a vacuum manifold. The filtrates of the test compounds were diluted 2-fold with acetonitrile with 2% DMSO before measuring.
In parallel, using a 20 mM stock solution of the tested compounds in 100% DMSO, dilutions were prepared to theoretical concentrations of 0 μM (blank), 10 μM, 25 μM, 50 μM, 100 μM, and 200 μM in 50% acetonitrile/PBS with 2% final DMSO to generate calibration curves. Ondansetron was used as a reference compound to control proper assay performance. 200 μL of each sample was transferred to a 96-well plate and measured in the 230-550 nm range with a 5 nm step.
The concentrations of compounds in PBS filtrate are calculated using a dedicated Microsoft Excel calculation script. Proper absorbance wavelengths for calculations are selected for each compound manually based on absorbance maximums (absolute absorbance unit values for the minimum and maximum concentration points within the 0-3 OD range). Each final dataset is visually evaluated by the operator, and goodness of fit (R2) is calculated for each calibration curve. The effective range of this assay is approximately 2-400 μM and the compounds returning values close to the upper limit of the range may have higher actual solubility (e.g., 5′-deoxy-5-fluorouridine).
Table 8 show kinetic solubility data for selected compounds tested in the Kinetic Solubility assay described above.

[2] = tested on: Smad2/Smad3 phosphorylation; test: Phospho-Smad2/3 Inhibition Assay (western blot), Panc-1; format: cell-based, human; settings: at 10 μM, Panc-1 pancreatic cancer cell line; starred symbols = activation
Summary of the method: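 Panc-1 cells (KRas G12D), starved overnight in 0.5% FBS, treated 3 h at 37° C with compound at 10 μM final (0.3% DMSO) or serial dilutions for IC50, then stimulated with 10 ng/ml TGF-b1 for 1 h. Phospho-Smad2 (Ser465/467) and phospho-Smad3 (Ser423/425) detected by western blot.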

[3] = Mouse Liver Microsome Metabolic Stability Assay; format: in vitro ADME; settings: pH 7.4, Mouse liver microsomes, 37° C., NADPH, read-out: t½
Procedure: Biological Example 10: Assessment of Metabolic Stability in Mouse Liver Microsomes
Metabolic Stability Assay: Microsomal incubations were carried out in 96-well plates in 5 aliquots of 30 μL each (one for each time point). Liver microsomal incubation medium comprised of phosphate buffer (100 mM, pH 7.4), MgCl2 (3.3 mM), NADPH (3 mM), glucose-6-phosphate (5.3 mM), glucose-6-phosphate dehydrogenase (0.67 units/ml) with 0.42 mg of liver microsomal protein per mL. In the control reactions the NADPH-cofactor system was substituted with phosphate buffer. Test compounds (2 μM, final solvent concentration 1.6%) were incubated with microsomes at 37° C., shaking at 100 rpm. Each reaction was performed in duplicates. Five time points over 40 minutes were analyzed. The reactions were stopped by adding 5 volumes of methanol containing internal standard to incubation aliquots, followed by protein sedimentation by centrifuging at 5500 rpm for 4 minutes. Supernatants were analyzed using the HPLC system coupled with tandem mass spectrometer.
The elimination constant (kel), half-life (t1/2) and intrinsic clearance (Clint) were determined in plot of […] versus time, using linear regression analysis:
In order to indicate the quality of the linear regression analysis, the R (correlation coefficient) values are provided. In some cases, the last time point is excluded from the calculations to ensure acceptable logarithmic linearity of decay.
Table 9 show metabolic stability data for selected compounds tested in the Mouse Liver Microsome Metabolic Stability assay described above.

Row | SMILES | solubility at 2 h [1] | half-life at 2 µM [3] | % inh of Smad2/3 phosphorylation in Panc-1 [2]
1 | COc1cc(Nc2nc(-c3nccn3C)nn3cc(-c4ccn(C(C)C)n4)c(C)c23)ncn1 [Compound 6, 6-(1-Isopropyl-1H-pyrazol-3-yl)-N-(6-methoxypyrimidin-4-yl)-5-methyl-2-(1-methyl-1H-imidazol-2-yl)pyrrolo[2,1-f][1,2,4]triazin-4-amine] | < 10 µM | > 10 min | 0 (0 = 0% inhibition)
2 | COc1ccnc(Nc2nc(-c3nccn3C)nn3cc(-c4ccn(C)n4)c(C)c23)c1 [Compound 102, N-(4-Methoxypyridin-2-yl)-5-methyl-2-(1-methyl-1H-imidazol-2-yl)-6-(1-methyl-1H-pyrazol-3-yl)pyrrolo[2,1-f][1,2,4]triazin-4-amine] | > 30 µM | > 10 min | A* (A* = 1-25% activation)
3 | Cc1c(-c2ccn(C)n2)cn2nc(-c3nccn3C)nc(Nc3cc(C4CC4)[nH]n3)c12 [Compound 104, N-(5-Cyclopropyl-1H-pyrazol-3-yl)-5-methyl-2-(1-methyl-1H-imidazol-2-yl)-6-(1-methyl-1H-pyrazol-3-yl)pyrrolo[2,1-f][1,2,4]triazin-4-amine] | < 10 µM | > 10 min | D* (D* = 76-100% activation)
4 | Cc1c(-c2ccn(C)n2)cn2nc(-c3nccn3C)nc(Nc3cc4n(n3)CCO4)c12 [Compound 124, N-(5-Methyl-2-(1-methyl-1H-imidazol-2-yl)-6-(1-methyl-1H-pyrazol-3-yl)pyrrolo[2,1-f][1,2,4]triazin-4-yl)-2,3-dihydropyrazolo[5,1-b]oxazol-6-amine] | 10 to 30 µM | > 10 min | A (A = 1-25% inhibition)
5 | Cc1c(-c2ccn(C)n2)cn2nc(-c3nccn3C)nc(Nc3cc(OC4CC4)ccn3)c12 [Compound 126, N-(4-Cyclopropoxypyridin-2-yl)-5-methyl-2-(1-methyl-1H-imidazol-2-yl)-6-(1-methyl-1H-pyrazol-3-yl)pyrrolo[2,1-f][1,2,4]triazin-4-amine] |  | > 10 min | A* (A* = 1-25% activation)
6 | Cc1c(-c2ccn(C)n2)cn2nc(-c3nccn3C)nc(Nc3cc(OC(F)(F)F)ccn3)c12 [Compound 127, 5-Methyl-2-(1-methyl-1H-imidazol-2-yl)-6-(1-methyl-1H-pyrazol-3-yl)-N-(4-(trifluoromethoxy)pyridin-2-yl)pyrrolo[2,1-f][1,2,4]triazin-4-amine] |  | < 10 min | A (A = 1-25% inhibition)
7 | Cc1c(-c2ccn(C)n2)cn2nc(-c3nccn3C)nc(Nc3cc(OC(F)F)ccn3)c12 [Compound 128, N-(4-(Difluoromethoxy)pyridin-2-yl)-5-methyl-2-(1-methyl-1H-imidazol-2-yl)-6-(1-methyl-1H-pyrazol-3-yl)pyrrolo[2,1-f][1,2,4]triazin-4-amine] |  | > 10 min | A (A = 1-25% inhibition)

Further lines, with some results ahead:

Row | solubility at 2 h [1] | half-life at 2 µM [3] | SMILES | % inh of Smad2/3 phosphorylation in Panc-1 [2]
8 |  | > 10 min | Cc1c(-c2ccn(C)n2)cn2nc(-c3nccn3C)nc(Nc3cc(OCC(F)(F)F)ccn3)c12 [Compound 129, 5-Methyl-2-(1-methyl-1H-imidazol-2-yl)-6-(1-methyl-1H-pyrazol-3-yl)-N-(4-(2,2,2-trifluoroethoxy)pyridin-2-yl)pyrrolo[2,1-f][1,2,4]triazin-4-amine] | D* (D* = 76-100% activation)
9 | 10 to 30 µM | > 10 min | COc1ccnc(Nc2nc(-c3nccn3C)nn3cc(-c4ccn(C5CC5)n4)c(C)c23)c1 [Compound 137, 6-(1-Cyclopropyl-1H-pyrazol-3-yl)-N-(4-methoxypyridin-2-yl)-5-methyl-2-(1-methyl-1H-imidazol-2-yl)pyrrolo[2,1-f][1,2,4]triazin-4-amine] | C (C = 46-75% inhibition)
10 | 10 to 30 µM | > 10 min | CCOc1ccnc(Nc2nc(-c3nccn3C)nn3cc(-c4ccn(C5CC5)n4)c(C)c23)c1 [Compound 141, 6-(1-Cyclopropyl-1H-pyrazol-3-yl)-N-(4-ethoxypyridin-2-yl)-5-methyl-2-(1-methyl-1H-imidazol-2-yl)pyrrolo[2,1-f][1,2,4]triazin-4-amine] | D (D = 76-100% inhibition)
11 | 10 to 30 µM | > 10 min | Cc1c(-c2ccn(C3CC3)n2)cn2nc(-c3nccn3C)nc(Nc3cc(OC4CC4)ccn3)c12 [Compound 142, N-(4-Cyclopropoxypyridin-2-yl)-6-(1-cyclopropyl-1H-pyrazol-3-yl)-5-methyl-2-(1-methyl-1H-imidazol-2-yl)pyrrolo[2,1-f][1,2,4]triazin-4-amine] | C (C = 46-75% inhibition)
12 | < 10 µM | < 10 min | Cc1c(-c2ccn(C3CC3)n2)cn2nc(-c3nccn3C)nc(Nc3ccccn3)c12 [Compound 143, 6-(1-Cyclopropyl-1H-pyrazol-3-yl)-5-methyl-2-(1-methyl-1H-imidazol-2-yl)-N-(pyridin-2-yl)pyrrolo[2,1-f][1,2,4]triazin-4-amine] | A (A = 1-25% inhibition)
13 | < 10 µM | > 10 min | Cc1ccnc(Nc2nc(-c3nccn3C)nn3cc(-c4ccn(C5CC5)n4)c(C)c23)c1 [Compound 144, 6-(1-Cyclopropyl-1H-pyrazol-3-yl)-5-methyl-2-(1-methyl-1H-imidazol-2-yl)-N-(4-methylpyridin-2-yl)pyrrolo[2,1-f][1,2,4]triazin-4-amine] | D (D = 76-100% inhibition)
14 | 10 to 30 µM | > 10 min | Cc1c(-c2ccn(C3CC3)n2)cn2nc(-c3nccn3C)nc(Nc3cc(N(C)C)ccn3)c12 [Compound 145, N^2-(6-(1-Cyclopropyl-1H-pyrazol-3-yl)-5-methyl-2-(1-methyl-1H-imidazol-2-yl)pyrrolo[2,1-f][1,2,4]triazin-4-yl)-N^4,N^4-dimethylpyridine-2,4-diamine] | B* (B* = 26-45% activation)
15 |  | > 10 min | Cc1c(-c2cccnc2)cn2nc(-c3nccn3C)nc(Nc3ccncn3)c12 [Compound 156, 5-Methyl-2-(1-methyl-1H-imidazol-2-yl)-6-(pyridin-3-yl)-N-(pyrimidin-4-yl)pyrrolo[2,1-f][1,2,4]triazin-4-amine] | D (D = 76-100% inhibition)
16 | < 10 µM | > 10 min | COc1ccnc(Nc2nc(-c3nccn3C)nn3cc(-c4cccnc4)c(C)c23)c1 [Compound 157, N-(4-Methoxy-pyridin-2-yl)-5-methyl-2-(1-methyl-1H-imidazol-2-yl)-6-(pyridin-3-yl)pyrrolo[2,1-f][1,2,4]triazin-4-amine] | B* (B* = 26-45% activation)
17 | 10 to 30 µM | < 10 min | COc1ccnc(Nc2nc(-c3nccn3C)nn3cc(-c4cccnc4)c(C)c23)n1 [Compound 158, N-(4-Methoxy-pyrimidin-2-yl)-5-methyl-2-(1-methyl-1H-imidazol-2-yl)-6-(pyridin-3-yl)pyrrolo[2,1-f][1,2,4]triazin-4-amine] | B* (B* = 26-45% activation)
